Results taken from patent US12502380B2, “MrgprX2 antagonists for the treatment of inflammatory disorders” (Dermira, Inc., priority 2019, dated 2025).

molecular target: T1, Human MrgprX2 (Homo sapiens, UniProt Q96LB1); assay: Human MrgprX2 antagonist FLIPR intracellular calcium mobilization assay; type: cell-based; conditions: antagonist activity, recombinant hMrgpMRGPRX2 expressing cells, read-out: Human MrgprX2 Antagonist pIC50 (converted)
T1 construct: expressed in transfected cells
T1 sequence (Q96LB1 1-330): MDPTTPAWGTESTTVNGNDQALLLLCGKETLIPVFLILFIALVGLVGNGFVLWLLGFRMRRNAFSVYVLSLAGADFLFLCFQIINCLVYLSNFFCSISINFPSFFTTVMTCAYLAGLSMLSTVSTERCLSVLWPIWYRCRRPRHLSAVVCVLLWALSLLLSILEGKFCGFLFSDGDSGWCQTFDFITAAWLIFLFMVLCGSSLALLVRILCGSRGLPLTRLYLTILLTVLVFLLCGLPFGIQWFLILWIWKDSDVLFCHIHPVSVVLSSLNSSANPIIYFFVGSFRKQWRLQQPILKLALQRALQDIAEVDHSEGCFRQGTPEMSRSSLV
Text: Potent and selective hMrgpMRGPRX2 compounds have been generated from compounds identified during a high throughput screening (HTS) campaign and followed up with cycles of structure activity based medicinal chemistry efforts. These compounds were characterized in recombinant hMrgpMRGPRX2 expressing cells for their antagonist activity and the potency was confirmed in the human mast cell line LAD-2, where the target is endogenously expressed. The assays used to determine potencies are functional read-out looking at intracellular calcium mobilization using the FLIPR™ technology. In these FLIPR assays, we test the identified compounds using recombinant cellular systems expressing mouse MrgprB2, mouse MrgprA1, gerbil MrgpMRGPRX2 orthologue, Chinese hamster MrgpMRGPRX2 orthologue and cynomolgus monkey MrgpMRGPRX2 orthologue, respectively for orthologue activity.

Row | Structure (SMILES) | IC50 [µM]
1 | NS(=O)(=O)N1CCC[C@H]1C(=O)Nc1ncc(Cc2cccc(F)c2)s1 [Compound E062] | 3.98
2 | CC1(C(=O)Nc2ncc(Cc3ccccc3F)s2)CCN(S(N)(=O)=O)C1 (stereo not shown) [Compound E064] | 0.631
3 | NS(=O)(=O)N1CC[C@@H]1C(=O)Nc1ncc(Cc2cccc(F)c2)s1 [Compound E065] | 0.0794
4 | NS(=O)(=O)N1CCCC[C@@H]1C(=O)Nc1ncc(Cc2cccc(F)c2)s1 [Compound E066] | 0.0316
5 | CN(CC(=O)Nc1ncc(Cc2cccc(F)c2)s1)S(N)(=O)=O [Compound E067] | 10
6 | CC1(C(=O)Nc2ncc(Oc3cccc(F)c3)s2)CCOCC1 [Compound E070, N-[5-(3-fluorophenoxy)thiazol-2-yl]-4-methyl-tetrahydropyran-4-carboxamide] | 0.00501
7 | CC(C)C(=O)Nc1ncc(Oc2cccnc2)s1 [Compound E071] | 6.31
8 | CC(C)C(=O)Nc1ncc(Nc2ccccc2)s1 [Compound E072] | 1.26
9 | CC(C)C(=O)Nc1ncc(Oc2ccccc2F)s1 [Compound E075] | 0.0316
10 | CC1(C(=O)Nc2ncc(Oc3cccc(F)c3)s2)CCOC1 (stereo not shown) [Compound E078, N-[5-(3-fluorophenoxy)thiazol-2-yl]-3-methyl-tetrahydrofuran-3-carboxamide] | 0.00251
11 | CC(C)C(=O)Nc1nc(C#N)c(Oc2ccc(F)cc2)s1 [Compound E081] | 2.51
12 | O=C(Nc1ncc(Oc2ccccc2)s1)[C@H]1CCCN1 [Compound E085, (2R)—N-(5-phenoxythiazol-2-yl)pyrrolidine-2-carboxamide] | 2.51
13 | NS(=O)(=O)N1CCC[C@@H]1C(=O)Nc1ncc(Oc2ccc(F)cc2)s1 [Compound E089, (2R)—N-[5-(4-fluorophenoxy)thiazol-2-yl]-1-sulfamoyl-pyrrolidine-2-carboxamide] | 0.0251
14 | N#Cc1cc(F)cc(Oc2cnc(NC(=O)[C@H]3CCCN3S(N)(=O)=O)s2)c1 [Compound E090, (2R)—N-[5-(3-cyano-5-fluoro-phenoxy)thiazol-2-yl]-1-sulfamoyl-pyrrolidine-2-carboxamide] | 0.0316
15 | CC1(C(=O)Nc2ncc(Cc3cc(F)ccc3F)s2)CCOCC1 [Compound E092, N-[5-[(2,5-difluorophenyl)methyl]thiazol-2-yl]-4-methyl-tetrahydropyran-4-carboxamide] | 0.1
16 | CC(C)C(=O)Nc1ncc(Cc2cc(F)ccc2F)s1 [Compound E093] | 0.00631
17 | CC(C)C(=O)Nc1ncc(Cc2cccc(F)c2F)s1 [Compound E094] | 0.00794

Row | Structure (SMILES) | IC50 [µM]
18 | CC1(C(=O)Nc2ncc(Cc3cccc(F)c3F)s2)CCOCC1 [Compound E095] | 0.158
19 | CCN(C[C@H](C)O)C(=O)Nc1ncc(Cc2cccc(Cl)c2)s1 [Compound E098, 3-[5-[(3-chlorophenyl)methyl]thiazol-2-yl]-1-ethyl-1-[(2S)-2-hydroxypropyl]urea] | 0.00316
20 | CC(O)CN(C)C(=O)Nc1ncc(Cc2ccccc2F)s1 (stereo not shown) [Compound E099] | 0.398
21 | C[C@@H](O)CN(C)C(=O)Nc1ncc(Cc2cccc(F)c2)s1 [Compound E100] | 0.251
22 | C[C@@H](O)CN(C)C(=O)Nc1ncc(Cc2ccccc2F)s1 [Compound E103] | 1.26
23 | CN(C[C@H](O)C(F)(F)F)C(=O)Nc1ncc(Cc2cccc(F)c2)s1 [Compound E109] | 0.0251
24 | CN(C[C@@H](O)C(F)(F)F)C(=O)Nc1ncc(Cc2cccc(F)c2)s1 [Compound E111] | 0.00316
25 | O=C(Nc1ncc(Cc2cccc(F)c2)s1)N1CC[C@H](CO)C1 [Compound E112] | 0.794
26 | CC(O)CN(C(=O)Nc1ncc(Cc2cccc(F)c2)s1)C1CC1 (stereo not shown) [Compound E114] | 0.794
27 | C[C@H](O)CN(C)C(=O)Nc1ncc(Cc2cccc(Cl)c2)s1 [Compound E116] | 0.0316
28 | CCN(C[C@H](C)O)C(=O)Nc1ncc(Cc2cccc(F)c2)s1 [Compound E117] | 0.000631
29 | CCN(C[C@@H](C)O)C(=O)Nc1ncc(Cc2cccc(F)c2)s1 [Compound E118] | 0.0251
30 | O=C(Nc1ncc(Cc2cccc(F)c2)s1)N1CCC[C@H]1CO [Compound E120] | 0.398
31 | O=C(Nc1ncc(Cc2cccc(F)c2)s1)N1CCC[C@@H]1CO [Compound E121] | 0.0398
32 | CC(C)CN(C)C(=O)Nc1ncc(Cc2cccc(F)c2)s1 [Compound E125] | 0.00794
33 | O=C(Nc1ncc(Cc2cccc(F)c2)s1)N1CC(F)(F)C[C@@H]1CO [Compound E127] | 0.0398

Results, then the molecule that gave them:

Row | IC50 [µM] | Structure (SMILES)
34 | 3.16 | CC(=O)N1CCC(C)(C(=O)Nc2ncc(Cc3ccccc3F)s2)CC1 [Compound E059, 1-acetyl-N-[5-[(2-fluorophenyl)methyl]thiazol-2-yl]-4-methyl-piperidine-4-carboxamide]
35 | 2.51 | CC1(C(=O)Nc2ncc(Cc3ccccc3F)s2)CCN(S(C)(=O)=O)CC1 [Compound E060, N-[5-[(2-fluorophenyl)methyl]thiazol-2-yl]-4-methyl-1-methylsulfonyl-piperidine-4-carboxamide]
36 | 2 | C[C@]1(C(=O)Nc2ncc(Cc3cccc(F)c3)s2)CCCN1 [Compound E061, (2R)—N-[5-[(3-fluorophenyl)methyl]thiazol-2-yl]-2-methyl-pyrrolidine-2-carboxamide]
37 | 0.00316 | C[C@]1(C(=O)Nc2ncc(Cc3cccc(F)c3)s2)CCCN1S(N)(=O)=O [Compound E063]
38 | 0.631 | C[C@H](C(=O)Nc1ncc(Cc2cccc(F)c2)s1)N(C)S(N)(=O)=O [Compound E068]
39 | 1.58 | CC[C@H](C(=O)Nc1ncc(Cc2cccc(F)c2)s1)N(C)S(N)(=O)=O [Compound E069]
40 | 1.58 | CC(C)C(=O)Nc1ncc(N(C)c2ccccc2)s1 [Compound E073]
41 | 0.01 | CC(C)C(=O)Nc1ncc(Oc2ccc(F)cc2)s1 [Compound E074]
42 | 0.00126 | CC(C)C(=O)Nc1ncc(Oc2cccc(F)c2)s1 [Compound E076]
43 | 0.0398 | CC1(C(=O)Nc2ncc(Oc3ccc(F)cc3)s2)CCOCC1 [Compound E077]
44 | 0.00398 | CC1(C(=O)Nc2ncc(Oc3cccc(Cl)c3)s2)CCOCC1 [Compound E079]
45 | 0.501 | CC1(C(=O)Nc2ncc(Oc3cncc(F)c3)s2)CCOCC1 [Compound E080]
46 | 1.26 | CC(C)(C)OC(=O)N1CCC[C@@H]1C(=O)Nc1ncc(Oc2ccccc2)s1 [Compound E082, tert-butyl (2R)-2-[(5-phenoxythiazol-2-yl)carbamoyl]pyrrolidine-1-carboxylate]
47 | 0.0158 | NS(=O)(=O)N1CCC[C@@H]1C(=O)Nc1ncc(Oc2ccccc2)s1 [Compound E086, (2R)—N-(5-phenoxythiazol-2-yl)-1-sulfamoyl-pyrrolidine-2-carboxamide]
48 | 2.51 | CN1CCC[C@@H]1C(=O)Nc1ncc(Oc2ccc(C#N)cc2)s1 [Compound E087, (2R)—N-[5-(4-cyanophenoxy)thiazol-2-yl]-1-methyl-pyrrolidine-2-carboxamide]
49 | 3.16 | CCN1CCC[C@@H]1C(=O)Nc1ncc(Oc2ccc(C#N)cc2)s1 [Compound E088, (2R)—N-[5-(4-cyanophenoxy)thiazol-2-yl]-1-ethyl-pyrrolidine-2-carboxamide]
50 | 1.58 | N#Cc1ccc(Oc2cnc(NC(=O)[C@H]3CCCN3S(N)(=O)=O)s2)cc1 [Compound E091, (2R)—N-[5-(4-cyanophenoxy)thiazol-2-yl]-1-sulfamoyl-pyrrolidine-2-carboxamide]

Row | IC50 [µM] | Structure (SMILES)
51 | 0.0501 | CC1(C(=O)Nc2ncc(Cc3cc(F)ccc3F)s2)COC1 [Compound E096]
52 | 2 | CC1(C(=O)Nc2ncc(CC3CCCC3)s2)CCOCC1 [Compound E097]
53 | 0.0398 | C[C@H](O)CN(C)C(=O)Nc1ncc(Cc2cccc(F)c2)s1 [Compound E101]
54 | 0.251 | C[C@H](O)CN(C)C(=O)Nc1ncc(Cc2ccccc2F)s1 [Compound E102]
55 | 0.316 | O=C(Nc1ncc(Cc2cccc(F)c2)s1)N1CCCC1CO (stereo not shown) [Compound E104]
56 | 0.0158 | CN(CC(O)C(F)(F)F)C(=O)Nc1ncc(Cc2cccc(F)c2)s1 (stereo not shown) [Compound E105]
57 | 3.16 | CN(CC(O)CO)C(=O)Nc1ncc(Cc2cccc(F)c2)s1 (stereo not shown) [Compound E106]
58 | 3.98 | C[C@H]1CN(C(=O)Nc2ncc(Cc3cccc(F)c3)s2)CCO1 [Compound E107]
59 | 0.00158 | CN(CC(C)(C)O)C(=O)Nc1ncc(Cc2cccc(F)c2)s1 [Compound E108]
60 | 0.000501 | CCN(CC(C)O)C(=O)Nc1ncc(Cc2cccc(F)c2)s1 (stereo not shown) [Compound E110]
61 | 0.794 | O=C(Nc1ncc(Cc2cccc(F)c2)s1)N1CC[C@@H](CO)C1 [Compound E113]
62 | 0.251 | CCN(CCO)C(=O)Nc1ncc(Cc2cccc(F)c2)s1 [Compound E115]
63 | 0.2 | CC(O)CN(CC(F)(F)F)C(=O)Nc1ncc(Cc2cccc(F)c2)s1 (stereo not shown) [Compound E119]
64 | 0.00631 | CN(CC1(O)CC1)C(=O)Nc1ncc(Cc2cccc(F)c2)s1 [Compound E122]
65 | 7.94 | O=C(Nc1ncc(Cc2cccc(F)c2)s1)N1CCOC[C@H]1CO [Compound E123]
66 | 0.794 | O=C(Nc1ncc(Cc2cccc(F)c2)s1)N1CCOC[C@@H]1CO [Compound E124]
67 | 0.631 | O=C(Nc1ncc(Cc2cccc(F)c2)s1)N1CCC1CO (stereo not shown) [Compound E126]
